Assay results: ChEMBL document CHEMBL1201862, “PubChem BioAssay data set” (2004)
Calls of active or inactive are those of the source.

Key:
[1] = biological target: Ras and Rab interactor 1/Tyrosine-protein kinase ABL1 (Homo sapiens, UniProt P00519+Q13671); format: functional;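 also: biochemical TR-FRET dose-response test measuring inhibition of binding between Rin1 and Abl proteins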
[2] = system: H9c2; assay: cells; format: functional, cell-based; settings: Rattus norvegicus, H9c2, Myocardium;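 also: confirmatory concentration-response retest of ultra-high-throughput screening hits for modulation of myocardial damage; cell death induced by hydrogen peroxide oxidative stress; compound pretreatment for 60 min then peroxide exposure for 2 h; potency is for protecting the cells against peroxide damage rather than for killing them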
[3] = biological target: T1, Methionyl-tRNA synthetase, putative (Trypanosoma brucei brucei, UniProt Q38C91); format: functional, Trypanosoma brucei brucei strain 927/4 GUTat10.1
T1 sequence (Q38C91 whole entry): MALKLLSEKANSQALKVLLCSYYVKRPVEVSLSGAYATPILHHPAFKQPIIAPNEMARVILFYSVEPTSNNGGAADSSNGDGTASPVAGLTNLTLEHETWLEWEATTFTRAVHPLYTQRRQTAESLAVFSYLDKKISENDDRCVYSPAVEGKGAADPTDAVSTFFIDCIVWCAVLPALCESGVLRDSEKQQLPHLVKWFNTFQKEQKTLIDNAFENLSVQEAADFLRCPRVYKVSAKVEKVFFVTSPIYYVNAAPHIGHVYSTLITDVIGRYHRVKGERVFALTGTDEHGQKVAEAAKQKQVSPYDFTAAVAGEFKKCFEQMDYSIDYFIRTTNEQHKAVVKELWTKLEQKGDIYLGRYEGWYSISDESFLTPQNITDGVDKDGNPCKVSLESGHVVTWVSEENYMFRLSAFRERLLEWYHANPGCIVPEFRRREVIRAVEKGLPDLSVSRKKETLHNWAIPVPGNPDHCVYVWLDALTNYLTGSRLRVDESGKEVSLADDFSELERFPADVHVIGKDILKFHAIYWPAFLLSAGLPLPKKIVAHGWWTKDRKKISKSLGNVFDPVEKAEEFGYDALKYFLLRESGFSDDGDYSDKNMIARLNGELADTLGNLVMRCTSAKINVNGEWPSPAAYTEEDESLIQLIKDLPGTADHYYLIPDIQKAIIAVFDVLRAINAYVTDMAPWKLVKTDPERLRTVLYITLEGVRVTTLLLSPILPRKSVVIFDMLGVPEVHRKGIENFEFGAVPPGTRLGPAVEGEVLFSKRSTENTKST

[4] = biological target: T1, Methionyl-tRNA synthetase, putative; format: functional, Trypanosoma brucei brucei strain 927/4 GUTat10.1; remark: listed apart in the source
[5] = biological target: T2, Voltage-gated N-type calcium channel alpha-1B subunit/Amyloid beta A4 precursor protein-binding family A member 1 (Homo sapiens, UniProt Q00975+Q02410); format: protein assay
T2 sequence (Q00975 whole entry): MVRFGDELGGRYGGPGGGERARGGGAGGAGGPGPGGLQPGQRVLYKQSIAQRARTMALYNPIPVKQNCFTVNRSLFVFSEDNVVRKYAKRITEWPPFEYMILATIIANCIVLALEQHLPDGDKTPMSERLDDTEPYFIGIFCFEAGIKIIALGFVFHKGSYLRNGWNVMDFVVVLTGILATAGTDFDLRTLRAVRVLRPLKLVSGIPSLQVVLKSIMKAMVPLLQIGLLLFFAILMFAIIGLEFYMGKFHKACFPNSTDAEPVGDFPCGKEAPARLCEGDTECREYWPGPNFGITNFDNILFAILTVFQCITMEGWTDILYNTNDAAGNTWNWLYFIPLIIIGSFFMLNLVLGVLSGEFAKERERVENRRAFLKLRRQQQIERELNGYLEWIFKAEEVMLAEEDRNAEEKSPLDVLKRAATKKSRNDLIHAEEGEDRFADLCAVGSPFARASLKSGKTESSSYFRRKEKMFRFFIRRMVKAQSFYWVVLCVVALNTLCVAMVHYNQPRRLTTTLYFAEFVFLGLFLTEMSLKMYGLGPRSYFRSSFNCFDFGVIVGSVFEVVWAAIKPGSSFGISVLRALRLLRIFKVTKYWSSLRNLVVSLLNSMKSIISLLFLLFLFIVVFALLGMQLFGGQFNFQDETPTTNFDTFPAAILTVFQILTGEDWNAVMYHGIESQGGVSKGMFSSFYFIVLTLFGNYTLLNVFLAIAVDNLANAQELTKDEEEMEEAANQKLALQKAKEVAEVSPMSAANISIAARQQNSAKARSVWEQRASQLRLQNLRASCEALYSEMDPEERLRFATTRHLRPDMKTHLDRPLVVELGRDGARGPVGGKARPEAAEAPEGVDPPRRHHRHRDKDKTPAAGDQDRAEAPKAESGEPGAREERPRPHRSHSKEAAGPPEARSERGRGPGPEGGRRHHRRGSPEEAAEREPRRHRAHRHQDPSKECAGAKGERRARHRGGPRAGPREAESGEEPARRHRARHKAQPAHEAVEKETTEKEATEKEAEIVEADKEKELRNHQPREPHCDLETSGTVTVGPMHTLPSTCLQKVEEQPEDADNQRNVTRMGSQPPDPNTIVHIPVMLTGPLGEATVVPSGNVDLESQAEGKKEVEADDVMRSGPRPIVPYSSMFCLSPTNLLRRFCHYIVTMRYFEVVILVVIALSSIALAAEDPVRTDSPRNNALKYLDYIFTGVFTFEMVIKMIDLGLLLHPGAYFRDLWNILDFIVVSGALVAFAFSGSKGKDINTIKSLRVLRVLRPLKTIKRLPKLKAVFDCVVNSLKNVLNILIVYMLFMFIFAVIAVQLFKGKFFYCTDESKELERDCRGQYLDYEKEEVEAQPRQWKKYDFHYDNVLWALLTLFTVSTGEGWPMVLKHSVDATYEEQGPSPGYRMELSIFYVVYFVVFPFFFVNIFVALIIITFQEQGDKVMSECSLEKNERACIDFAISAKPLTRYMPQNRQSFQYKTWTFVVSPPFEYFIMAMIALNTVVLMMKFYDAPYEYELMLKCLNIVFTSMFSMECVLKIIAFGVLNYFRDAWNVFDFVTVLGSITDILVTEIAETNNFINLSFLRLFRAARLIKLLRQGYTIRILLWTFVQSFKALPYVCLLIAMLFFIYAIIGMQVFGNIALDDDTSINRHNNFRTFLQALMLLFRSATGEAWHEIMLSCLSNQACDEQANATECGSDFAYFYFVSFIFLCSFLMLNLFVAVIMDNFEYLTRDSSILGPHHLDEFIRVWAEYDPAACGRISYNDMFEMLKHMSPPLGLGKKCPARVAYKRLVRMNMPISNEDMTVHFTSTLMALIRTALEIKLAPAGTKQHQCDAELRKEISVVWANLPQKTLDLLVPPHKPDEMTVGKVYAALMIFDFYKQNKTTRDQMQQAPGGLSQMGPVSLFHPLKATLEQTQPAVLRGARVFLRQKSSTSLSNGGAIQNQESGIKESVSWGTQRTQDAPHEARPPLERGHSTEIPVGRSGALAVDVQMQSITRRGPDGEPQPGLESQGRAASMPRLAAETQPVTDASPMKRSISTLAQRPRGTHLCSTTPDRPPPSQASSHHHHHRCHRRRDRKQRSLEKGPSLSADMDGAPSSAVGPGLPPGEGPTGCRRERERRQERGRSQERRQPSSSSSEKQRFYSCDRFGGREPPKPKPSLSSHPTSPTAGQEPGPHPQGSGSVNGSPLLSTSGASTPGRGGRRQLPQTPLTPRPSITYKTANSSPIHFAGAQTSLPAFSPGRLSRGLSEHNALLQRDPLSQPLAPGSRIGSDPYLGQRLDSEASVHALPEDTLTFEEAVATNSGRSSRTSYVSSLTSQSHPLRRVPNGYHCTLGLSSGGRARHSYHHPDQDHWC
T2 sequence (Q02410 whole entry): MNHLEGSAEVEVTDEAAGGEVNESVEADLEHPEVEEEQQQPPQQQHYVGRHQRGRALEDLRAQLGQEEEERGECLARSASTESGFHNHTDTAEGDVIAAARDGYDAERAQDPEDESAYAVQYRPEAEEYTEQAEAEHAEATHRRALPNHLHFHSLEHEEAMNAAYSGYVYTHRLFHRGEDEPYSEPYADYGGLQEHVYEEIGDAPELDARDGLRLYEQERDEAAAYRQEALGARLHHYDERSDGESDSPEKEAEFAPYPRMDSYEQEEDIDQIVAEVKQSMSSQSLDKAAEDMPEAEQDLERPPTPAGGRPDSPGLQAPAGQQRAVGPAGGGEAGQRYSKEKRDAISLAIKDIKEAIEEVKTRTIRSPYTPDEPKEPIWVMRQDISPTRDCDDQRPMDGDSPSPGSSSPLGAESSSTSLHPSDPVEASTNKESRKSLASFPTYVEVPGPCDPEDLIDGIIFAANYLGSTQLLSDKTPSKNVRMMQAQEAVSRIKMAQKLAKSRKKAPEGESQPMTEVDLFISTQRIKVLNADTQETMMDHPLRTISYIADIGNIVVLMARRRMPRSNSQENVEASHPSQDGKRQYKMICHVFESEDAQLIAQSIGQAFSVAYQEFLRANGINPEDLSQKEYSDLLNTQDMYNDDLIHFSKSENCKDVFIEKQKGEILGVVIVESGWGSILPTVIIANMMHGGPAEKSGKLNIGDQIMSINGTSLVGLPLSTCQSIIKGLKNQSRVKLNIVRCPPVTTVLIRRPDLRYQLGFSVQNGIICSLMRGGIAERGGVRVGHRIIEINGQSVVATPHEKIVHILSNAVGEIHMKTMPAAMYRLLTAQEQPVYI

[6] = biological target: Large T antigen (Simian virus 40, UniProt P03070); format: functional, Betapolyomavirus macacae;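 also: Confirmatory-stage PubChem screen for compounds that inhibit SV40 T antigen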
[7] = biological target: T2, Voltage-gated N-type calcium channel alpha-1B subunit/Amyloid beta A4 precursor protein-binding family A member 1; format: protein assay; remark: listed apart in the source
[8] = biological target: T3, Protein RecA (Mycobacterium tuberculosis, UniProt P9WHJ3); assay: Fluorescence Cell-Free Homogeneous Dose Retest to Identify Inhibitors of RecA-Intein Splicing Activity. [Related pubchem assays (depositor defined):AID2097, AID2223, AID489010, AID492950]; format: functional
T3 sequence (P9WHJ3 whole entry): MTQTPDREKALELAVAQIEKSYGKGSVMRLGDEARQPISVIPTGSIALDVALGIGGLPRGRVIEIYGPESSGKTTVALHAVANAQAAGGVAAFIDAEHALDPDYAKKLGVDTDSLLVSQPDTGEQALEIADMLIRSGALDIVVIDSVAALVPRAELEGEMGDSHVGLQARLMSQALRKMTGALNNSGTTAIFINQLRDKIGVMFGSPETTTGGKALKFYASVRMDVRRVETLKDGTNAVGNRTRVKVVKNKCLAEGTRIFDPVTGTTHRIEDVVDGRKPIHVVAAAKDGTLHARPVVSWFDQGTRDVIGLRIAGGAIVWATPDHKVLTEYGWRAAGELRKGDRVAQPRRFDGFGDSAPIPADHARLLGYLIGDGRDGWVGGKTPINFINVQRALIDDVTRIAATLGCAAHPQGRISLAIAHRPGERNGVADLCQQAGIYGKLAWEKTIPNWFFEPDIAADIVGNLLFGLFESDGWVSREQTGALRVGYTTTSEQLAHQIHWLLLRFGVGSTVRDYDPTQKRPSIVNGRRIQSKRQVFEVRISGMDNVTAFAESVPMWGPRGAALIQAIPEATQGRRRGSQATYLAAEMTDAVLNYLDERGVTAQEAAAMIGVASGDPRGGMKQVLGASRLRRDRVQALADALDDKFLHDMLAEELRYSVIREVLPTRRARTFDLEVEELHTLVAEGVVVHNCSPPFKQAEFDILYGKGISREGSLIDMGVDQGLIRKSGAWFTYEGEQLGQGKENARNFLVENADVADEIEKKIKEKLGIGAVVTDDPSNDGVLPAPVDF

[9] = biological target: T4, Replicative DNA helicase DnaB (Mycobacterium tuberculosis, UniProt P9WMR3); assay: DnaB intein splicing inhibitors, dose response, biochemical, cell-free fluorescence (AID 449749); format: functional
T4 sequence (P9WMR3 whole entry): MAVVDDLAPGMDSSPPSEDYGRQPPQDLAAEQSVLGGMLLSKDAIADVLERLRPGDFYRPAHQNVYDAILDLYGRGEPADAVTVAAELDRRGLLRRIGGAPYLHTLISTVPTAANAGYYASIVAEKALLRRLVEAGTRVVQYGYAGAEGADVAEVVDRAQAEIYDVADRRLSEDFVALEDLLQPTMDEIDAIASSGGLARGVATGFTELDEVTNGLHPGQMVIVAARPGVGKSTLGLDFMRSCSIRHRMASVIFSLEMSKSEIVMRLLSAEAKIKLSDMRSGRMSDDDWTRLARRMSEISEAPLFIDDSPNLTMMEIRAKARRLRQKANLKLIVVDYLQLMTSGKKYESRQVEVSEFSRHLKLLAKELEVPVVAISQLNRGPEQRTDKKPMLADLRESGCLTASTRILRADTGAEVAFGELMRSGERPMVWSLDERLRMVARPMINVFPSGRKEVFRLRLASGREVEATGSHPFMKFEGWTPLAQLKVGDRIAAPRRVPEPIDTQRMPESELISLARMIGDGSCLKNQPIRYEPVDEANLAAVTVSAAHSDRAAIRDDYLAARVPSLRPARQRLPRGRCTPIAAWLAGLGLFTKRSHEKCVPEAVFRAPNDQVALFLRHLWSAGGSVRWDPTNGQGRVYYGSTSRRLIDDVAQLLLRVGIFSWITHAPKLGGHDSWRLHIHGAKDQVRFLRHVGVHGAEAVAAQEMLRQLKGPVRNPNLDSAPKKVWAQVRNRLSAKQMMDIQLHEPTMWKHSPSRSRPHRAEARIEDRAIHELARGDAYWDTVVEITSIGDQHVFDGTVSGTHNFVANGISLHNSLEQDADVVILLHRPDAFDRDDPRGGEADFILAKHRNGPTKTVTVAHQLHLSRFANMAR

[10] = biological target: T5, Calpain-2 catalytic subunit (Sus scrofa, UniProt P43367); assay: m-calpain protease blockers, concentration series – biochemical, fluorogenic peptide substrate, dose response (AID 1420); format: functional
T5 sequence (P43367 whole entry): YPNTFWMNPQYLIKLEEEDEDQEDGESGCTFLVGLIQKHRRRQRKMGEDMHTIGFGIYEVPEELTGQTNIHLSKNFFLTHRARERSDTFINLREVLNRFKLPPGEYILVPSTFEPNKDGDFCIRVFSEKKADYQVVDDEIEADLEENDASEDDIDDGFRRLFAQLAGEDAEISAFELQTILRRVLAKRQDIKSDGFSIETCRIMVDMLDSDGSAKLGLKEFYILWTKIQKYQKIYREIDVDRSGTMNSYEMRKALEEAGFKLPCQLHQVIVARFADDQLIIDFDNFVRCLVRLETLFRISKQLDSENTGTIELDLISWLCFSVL

[11] = Counterscreen for inhibitors of Trypanosoma brucei methionyl tRNA synthetase (MetRS): Luminescence-based cell-based high throughput dose response assay to identify compounds that are cytotoxic to Jurkat human T lymphocyte cells.; format: functional

Ras and Rab interactor 1/Tyrosine-protein kinase ABL1, sequence (P00519 whole entry): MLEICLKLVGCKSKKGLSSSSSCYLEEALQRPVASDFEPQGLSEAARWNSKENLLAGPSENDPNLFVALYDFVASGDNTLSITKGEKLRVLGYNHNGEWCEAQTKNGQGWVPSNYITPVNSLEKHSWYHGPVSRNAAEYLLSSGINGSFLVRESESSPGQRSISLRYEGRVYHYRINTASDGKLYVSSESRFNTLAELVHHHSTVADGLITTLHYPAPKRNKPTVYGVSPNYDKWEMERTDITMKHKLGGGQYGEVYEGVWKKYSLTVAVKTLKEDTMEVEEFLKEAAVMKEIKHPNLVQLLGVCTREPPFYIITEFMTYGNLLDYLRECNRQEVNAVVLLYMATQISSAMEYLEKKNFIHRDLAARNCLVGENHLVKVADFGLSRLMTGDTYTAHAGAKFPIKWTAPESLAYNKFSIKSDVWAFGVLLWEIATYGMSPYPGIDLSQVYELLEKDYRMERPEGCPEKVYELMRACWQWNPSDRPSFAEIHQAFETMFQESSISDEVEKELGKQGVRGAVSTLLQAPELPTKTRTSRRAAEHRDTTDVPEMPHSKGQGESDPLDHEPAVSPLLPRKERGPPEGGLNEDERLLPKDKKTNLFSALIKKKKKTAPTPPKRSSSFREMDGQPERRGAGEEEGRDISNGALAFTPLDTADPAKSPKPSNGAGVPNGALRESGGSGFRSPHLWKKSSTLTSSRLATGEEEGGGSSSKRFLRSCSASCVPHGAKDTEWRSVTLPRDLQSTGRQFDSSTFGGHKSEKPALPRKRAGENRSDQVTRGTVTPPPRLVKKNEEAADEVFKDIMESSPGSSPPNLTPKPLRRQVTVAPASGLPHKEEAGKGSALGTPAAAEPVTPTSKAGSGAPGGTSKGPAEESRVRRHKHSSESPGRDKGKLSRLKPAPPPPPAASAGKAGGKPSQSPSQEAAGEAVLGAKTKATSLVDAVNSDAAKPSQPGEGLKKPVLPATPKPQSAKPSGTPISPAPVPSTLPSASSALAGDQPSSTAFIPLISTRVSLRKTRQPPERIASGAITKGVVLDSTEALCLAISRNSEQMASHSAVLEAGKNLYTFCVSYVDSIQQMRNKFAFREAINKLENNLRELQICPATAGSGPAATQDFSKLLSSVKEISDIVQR
Ras and Rab interactor 1/Tyrosine-protein kinase ABL1, sequence (Q13671 whole entry): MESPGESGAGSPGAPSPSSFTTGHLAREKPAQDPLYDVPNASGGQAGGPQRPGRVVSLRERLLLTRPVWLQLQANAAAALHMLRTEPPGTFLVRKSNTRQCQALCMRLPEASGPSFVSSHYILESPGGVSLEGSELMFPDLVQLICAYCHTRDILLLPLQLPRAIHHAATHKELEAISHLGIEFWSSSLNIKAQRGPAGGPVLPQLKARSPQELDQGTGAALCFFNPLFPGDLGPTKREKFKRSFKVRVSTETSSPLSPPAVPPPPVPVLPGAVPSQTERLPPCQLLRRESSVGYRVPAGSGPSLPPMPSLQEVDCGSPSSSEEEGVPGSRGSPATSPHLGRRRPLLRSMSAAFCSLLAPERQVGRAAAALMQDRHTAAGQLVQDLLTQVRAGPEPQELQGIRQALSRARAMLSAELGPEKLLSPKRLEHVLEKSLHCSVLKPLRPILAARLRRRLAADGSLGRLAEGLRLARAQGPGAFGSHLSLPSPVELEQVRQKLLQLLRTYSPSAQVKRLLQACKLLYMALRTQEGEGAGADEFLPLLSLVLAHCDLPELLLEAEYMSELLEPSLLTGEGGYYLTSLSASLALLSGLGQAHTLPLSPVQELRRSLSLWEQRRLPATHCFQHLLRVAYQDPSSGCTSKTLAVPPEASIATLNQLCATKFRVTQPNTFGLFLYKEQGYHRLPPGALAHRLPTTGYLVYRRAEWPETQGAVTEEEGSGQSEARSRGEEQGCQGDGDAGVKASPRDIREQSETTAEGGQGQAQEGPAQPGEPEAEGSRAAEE

With `N#CC12CCCCC1CC1CCCCC1(C#N)N2Cc1cccnc1` (configuration not stated) the IC50 [1] was 1.68 µM (active).
For `CCc1nc2ccc(C(=O)Nc3cccc(OCC(=O)N(C)C)c3)cn2c1N(C)Cc1cc2ccccc2s1`, the IC50 [2] was > 79 µM (inactive).
With `NS(=O)(=O)c1ccc(CCNC(=O)c2cc(-c3cc(Cl)ccc3O)n[nH]2)cc1` the IC50 [3] was 119 µM (inactive) and the IC50 [4] was 14.4 µM (inactive).
For `Cn1sc(=O)c2cc(S(=O)(=O)NC3CC3)ccc21`, the IC50 [5] was 15.6 µM (active), the IC50 [6] was 57.3 µM (active) and the IC50 [7] was 9.45 µM (active).
In the case of `O=[N+]([O-])c1ccc(Oc2cccc(F)c2)c2ccncc12`, the EC50 [8] is reported as 0.956 µM (active), the AC50 [9] is reported as > 380 µM (inactive) and the IC50 [10] is reported as 3.5 µM (not active).
In the case of `CCN(CC)C(=O)C(=O)c1cn(CC(=O)NCc2ccc3c(c2)OCO3)c2ccccc12`, the IC50 [11] is reported as 83.3 µM (inactive), the IC50 [3] is reported as 14.4 µM (inactive) and the IC50 [4] is reported as 4.83 µM (active).
In the case of `O=C(/C=C/c1ccc([N+](=O)[O-])cc1)N(c1ccccn1)C1CCCCC1`, the IC50 [5] is reported as 10.5 µM (active) and the IC50 [7] is reported as 29.1 µM (active).
For `COc1cccc(NC(=O)NC2(C(F)(F)F)Oc3ccccc3O2)c1`, the IC50 [2] was > 79 µM (inactive).
In the case of `OC(c1cc(Cl)cc(Cl)c1)c1nc(-c2ccccc2C(F)(F)F)c[nH]1` (configuration not stated), the IC50 [11] is reported as 59.4 µM (inactive), the IC50 [3] is reported as 4.05 µM (active) and the IC50 [4] is reported as 2.88 µM (active).
With `O=C(CC1SCCNC1=O)Nc1cccc(Cl)c1` (configuration not stated) the IC50 [1] was 20.8 µM (inactive).
In the case of `COc1cc(-c2cc(C(=O)NCc3ccco3)c3ccccc3n2)cc(OC)c1OC`, the IC50 [2] is reported as 13.2 µM (active).
With `CN(C)C(=O)CSc1nc(O)c2ccccc2n1` the IC50 [2] was > 79 µM (inactive).
